The source of these data is patent US9999619B2, “Piperidin-4-yl azetidine derivatives as JAK1 inhibitors” (Incyte Corporation, priority 2010, dated 2018).

What all share (type): biochemical
One assay has as its target Jak2 (a.a. 828-1132) (Homo sapiens (Human), UniProt O60674). The assay can be described thus: In vitro JAK kinase assay (HTRF, phosphorylation of a biotinylated peptide), JAK2. The settings on record: measured at 1 mM ATP. The essentials: (§1)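 Phosphorylation of a biotinylated peptide by purified His-tagged JAK catalytic domains (insect-cell baculovirus expression) ran 1 hr at room temperature. After stopping with EDTA, Eu-Py20 and SA-APC were bound for 40 minutes and HTRF measured.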
On the technique in general: TR-FRET usually uses a lanthanide donor and a delayed reading to cut background.

The target of assay [1] is human JAK1 (a.a. 837-1142) (Homo sapiens, UniProt P23458). The assay is described as follows: In vitro JAK kinase assay (HTRF, phosphorylation of a biotinylated peptide), JAK1. As to conditions: measured at 1 mM ATP. The method in brief:
as §1

Assay [2] addresses human JAK1 (a.a. 837-1142). The description is as above. As to conditions: ratio of JAK2 IC50 to JAK1 IC50, measured at 1 mM ATP. The essentials: as §1

Sequence of Jak2 (a.a. 828-1132) (O60674 828-1132): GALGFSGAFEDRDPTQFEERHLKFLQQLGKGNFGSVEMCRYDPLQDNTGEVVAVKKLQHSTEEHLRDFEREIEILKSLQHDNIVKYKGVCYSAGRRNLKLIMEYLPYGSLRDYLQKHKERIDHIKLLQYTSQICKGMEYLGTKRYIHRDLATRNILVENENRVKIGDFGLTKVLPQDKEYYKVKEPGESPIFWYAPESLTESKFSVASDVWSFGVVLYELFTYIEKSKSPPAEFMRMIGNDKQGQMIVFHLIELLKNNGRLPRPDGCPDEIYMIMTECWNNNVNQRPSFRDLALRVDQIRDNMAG

Broadly, the IC50 is the concentration at which inhibition is half-maximal. Turning to `N#CCC1(n2cc(-c3ncnc4[nH]ccc34)cn2)CN(C2CCN(C(=O)c3ccc(F)c(O)c3)CC2)C1` [Example 58, {1-[1-(4-fluoro-3-hydroxybenzoyl)piperidin-4-yl]-3-[4-(7H-pyrrolo[2,3-d]pyrimidin-4-yl)-1H-pyrazol-1-yl]azetidin-3-yl}acetonitrile], the IC50 against Jak2 (a.a. 828-1132) was 10 to 50 nM; in assay [1], not above 5 nM. For the same molecule, the “IC50 Ratio JAK2/JAK1” value in assay [2] was 5.0.
On the same counts, the results for `CN(C)c1ccc(C(=O)N2CCC(N3CC(CC#N)(n4cc(-c5ncnc6[nH]ccc56)cn4)C3)CC2)cc1C#N` [Example 59, 5-[(4-{3-(cyanomethyl)-3-[4-(7H-pyrrolo[2,3-d]pyrimidin-4-yl)-1H-pyrazol-1-yl]azetidin-1-yl}piperidin-1yl)carbonyl]-2-(dimethylamino)benzonitrile] are not above 10 nM, not above 5 nM and 4.6.
In the case of `CN(C)c1c(F)c(F)c(C(=O)N2CCC(N3CC(CC#N)(n4cc(-c5ncnc6[nH]ccc56)cn4)C3)CC2)c(F)c1F` [Example 60, {1-{1-[4-(dimethylamino)-2,3,5,6-tetrafluorobenzoyl]piperidin-4-yl}-3-[4-(7H-pyrrolo[2,3-d]pyrimidin-4-yl)-1H-pyrazol-1-yl]azetidin-3-yl}acetonitrile], the IC50 was not above 10 nM against Jak2 (a.a. 828-1132) and not above 5 nM in assay [1]. The “IC50 Ratio JAK2/JAK1” value in assay [2] is listed as 1.8.
In the case of `N#CCC1(n2cc(-c3ncnc4[nH]ccc34)cn2)CN(C2CCN(C(=O)c3c(F)cncc3F)CC2)C1` [Example 61, {1-[1-(3,5-difluoroisonicotinoyl)piperidin-4-yl]-3-[4-(7H-pyrrolo[2,3-d]pyrimidin-4-yl)-1H-pyrazol-1-yl]azetidin-3-yl}acetonitrile], the IC50 at Jak2 (a.a. 828-1132) was in the range of 10 to 50 nM; in assay [1], 5 to 20 nM. In addition, the “IC50 Ratio JAK2/JAK1” value in assay [2] is reported as 4.2.
On the same counts, the results for `N#CCC1(n2cc(-c3ncnc4[nH]ccc34)cn2)CN(C2CCN(C(=O)c3ccccc3F)CC2)C1` [Example 67, {1-[1-(2-fluorobenzoyl)piperidin-4-yl]-3-[4-(7H-pyrrolo[2,3-d]pyrimidin-4-yl)-1H-pyrazol-1-yl]azetidin-3-yl}acetonitrile] are not above 10 nM, not above 5 nM and 4.7.
Consider `N#CCC1(n2cc(-c3ncnc4[nH]ccc34)cn2)CN(C2CCN(C(=O)c3sc(C(F)(F)F)cc3O)CC2)C1` [Example 71, {1-{1-[3-hydroxy-5-(trifluoromethyl)-2-thienylcarbonyl]piperidin-4-yl}-3-[4-(7H-pyrrolo[2,3-d]pyrimidin-4-yl)-1H-pyrazol-1-yl]azetidin-3-yl}acetonitrile], for which the results for the IC50 (at Jak2 (a.a. 828-1132); in assay [1]) were 50 to 100 nM and 20 to 30 nM, respectively. Moreover, in assay [2], the “IC50 Ratio JAK2/JAK1” value was determined as 4.4.
For `COc1cscc1C(=O)N1CCC(N2CC(CC#N)(n3cc(-c4ncnc5[nH]ccc45)cn3)C2)CC1` [Example 72, {1-{1-[(4-methoxy-3-thienyl)carbonyl]piperidin-4-yl}-3-[4-(7H-pyrrolo[2,3-d]pyrimidin-4-yl)-1H-pyrazol-1-yl]azetidin-3-yl}acetonitrile], the results for the IC50 (on Jak2 (a.a. 828-1132); in assay [1]) were not above 10 nM and not above 5 nM, respectively. Besides, the “IC50 Ratio JAK2/JAK1” value in assay [2] was determined as 6.6.
Turning to `Cc1cc(C(=O)N2CCC(N3CC(CC#N)(n4cc(-c5ncnc6[nH]ccc56)cn4)C3)CC2)cs1` [Example 73, {1-{1-[(5-methyl-3-thienyl)carbonyl]piperidin-4-yl}-3-[4-(7H-pyrrolo[2,3-d]pyrimidin-4-yl)-1H-pyrazol-1-yl]azetidin-3-yl}acetonitrile], the figures for the IC50 (against Jak2 (a.a. 828-1132); in assay [1]) were not above 10 nM and not above 5 nM, respectively. In assay [2], the “IC50 Ratio JAK2/JAK1” value was 4.2.
On the same counts, the results for `COc1c(C(=O)N2CCC(N3CC(CC#N)(n4cc(-c5ncnc6[nH]ccc56)cn4)C3)CC2)csc1Cl` [Example 74, {1-{1-[(5-chloro-4-methoxy-3-thienyl)carbonyl]piperidin-4-yl}-3-[4-(7H-pyrrolo[2,3-d]pyrimidin-4-yl)-1H-pyrazol-1-yl]azetidin-3-yl}acetonitrile] are 10 to 50 nM, not above 5 nM and 3.8.
On the same counts, the results for `N#CCC1(n2cc(-c3ncnc4[nH]ccc34)cn2)CN(C2CCN(C(=O)c3ccsc3Br)CC2)C1` [Example 75, {1-{1-[(2-bromo-3-thienyl)carbonyl]piperidin-4-yl}-3-[4-(7H-pyrrolo[2,3-d]pyrimidin-4-yl)-1H-pyrazol-1-yl]azetidin-3-yl}acetonitrile] are not above 10 nM, not above 5 nM and 3.4.
Consider `N#CCC1(n2cc(-c3ncnc4[nH]ccc34)cn2)CN(C2CCN(C(=O)c3sccc3Cl)CC2)C1` [Example 76, {1-{1-[(3-chloro-2-thienyl)carbonyl]piperidin-4-yl}-3-[4-(7H-pyrrolo[2,3-d]pyrimidin-4-yl)-1H-pyrazol-1-yl]azetidin-3-yl}acetonitrile], for which the IC50 on Jak2 (a.a. 828-1132) was not above 10 nM; in assay [1], not above 5 nM. In assay [2], the “IC50 Ratio JAK2/JAK1” value turned out to be 5.5.
On the same counts, the results for `N#CCC1(n2cc(-c3ncnc4[nH]ccc34)cn2)CN(C2CCN(C(=O)c3ccc(Cl)s3)CC2)C1` [Example 77, {1-{1-[(5-chloro-2-thienyl)carbonyl]piperidin-4-yl}-3-[4-(7H-pyrrolo[2,3-d]pyrimidin-4-yl)-1H-pyrazol-1-yl]azetidin-3-yl}acetonitrile] are not above 10 nM, not above 5 nM and 5.5.
For the molecule `Cc1ccsc1C(=O)N1CCC(N2CC(CC#N)(n3cc(-c4ncnc5[nH]ccc45)cn3)C2)CC1` [Example 78, {1-{1-[(3-methyl-2-thienyl)carbonyl]piperidin-4-yl}-3-[4-(7H-pyrrolo[2,3-d]pyrimidin-4-yl)-1H-pyrazol-1-yl]azetidin-3-yl}acetonitrile], the results for the IC50 (at Jak2 (a.a. 828-1132); in assay [1]) were 10 to 50 nM and not above 5 nM, respectively. In addition, in assay [2], the “IC50 Ratio JAK2/JAK1” value was 5.4.
On the same counts, the results for `Cc1ccc(C(=O)N2CCC(N3CC(CC#N)(n4cc(-c5ncnc6[nH]ccc56)cn4)C3)CC2)s1` [Example 80, {1-{1-[(5-methyl-2-thienyl)carbonyl]piperidin-4-yl}-3-[4-(7H-pyrrolo[2,3-d]pyrimidin-4-yl)-1H-pyrazol-1-yl]azetidin-3-yl}acetonitrile] are not above 10 nM, not above 5 nM and 4.1.
On the same counts, the results for `COc1ccsc1C(=O)N1CCC(N2CC(CC#N)(n3cc(-c4ncnc5[nH]ccc45)cn3)C2)CC1` [Example 81, {1-{1-[(3-methoxy-2-thienyl)carbonyl]piperidin-4-yl}-3-[4-(7H-pyrrolo[2,3-d]pyrimidin-4-yl)-1H-pyrazol-1-yl]azetidin-3-yl}acetonitrile] are not above 10 nM, not above 5 nM and 4.2.
On the same counts, the results for `N#CCC1(n2cc(-c3ncnc4[nH]ccc34)cn2)CN(C2CCN(C(=O)c3ccc(C(F)(F)F)cc3F)CC2)C1` [Example 82, {1-{1-[2-fluoro-4-(trifluoromethyl)benzoyl]piperidin-4-yl}-3-[4-(7H-pyrrolo[2,3-d]pyrimidin-4-yl)-1H-pyrazol-1-yl]azetidin-3-yl}acetonitrile] are not above 10 nM, not above 5 nM and 5.3.
